Article PMC5516794 (Journal of medicinal chemistry, 2017)

Tests used:
cytoplasmic calcium = experiment: Fluo-4 fluorescence measurement of ATP-stimulated cytoplasmic calcium elevation; format: cell-based; conditions: 1 μM
TMEM16A [1] = target: T1, TMEM16A (Homo sapiens, UniProt Q5XXA6); experiment: Short-circuit current assay in TMEM16A-expressing FRT cells; format: cell-based; conditions: Figure S2A
T1 sequence (Q5XXA6 1-986): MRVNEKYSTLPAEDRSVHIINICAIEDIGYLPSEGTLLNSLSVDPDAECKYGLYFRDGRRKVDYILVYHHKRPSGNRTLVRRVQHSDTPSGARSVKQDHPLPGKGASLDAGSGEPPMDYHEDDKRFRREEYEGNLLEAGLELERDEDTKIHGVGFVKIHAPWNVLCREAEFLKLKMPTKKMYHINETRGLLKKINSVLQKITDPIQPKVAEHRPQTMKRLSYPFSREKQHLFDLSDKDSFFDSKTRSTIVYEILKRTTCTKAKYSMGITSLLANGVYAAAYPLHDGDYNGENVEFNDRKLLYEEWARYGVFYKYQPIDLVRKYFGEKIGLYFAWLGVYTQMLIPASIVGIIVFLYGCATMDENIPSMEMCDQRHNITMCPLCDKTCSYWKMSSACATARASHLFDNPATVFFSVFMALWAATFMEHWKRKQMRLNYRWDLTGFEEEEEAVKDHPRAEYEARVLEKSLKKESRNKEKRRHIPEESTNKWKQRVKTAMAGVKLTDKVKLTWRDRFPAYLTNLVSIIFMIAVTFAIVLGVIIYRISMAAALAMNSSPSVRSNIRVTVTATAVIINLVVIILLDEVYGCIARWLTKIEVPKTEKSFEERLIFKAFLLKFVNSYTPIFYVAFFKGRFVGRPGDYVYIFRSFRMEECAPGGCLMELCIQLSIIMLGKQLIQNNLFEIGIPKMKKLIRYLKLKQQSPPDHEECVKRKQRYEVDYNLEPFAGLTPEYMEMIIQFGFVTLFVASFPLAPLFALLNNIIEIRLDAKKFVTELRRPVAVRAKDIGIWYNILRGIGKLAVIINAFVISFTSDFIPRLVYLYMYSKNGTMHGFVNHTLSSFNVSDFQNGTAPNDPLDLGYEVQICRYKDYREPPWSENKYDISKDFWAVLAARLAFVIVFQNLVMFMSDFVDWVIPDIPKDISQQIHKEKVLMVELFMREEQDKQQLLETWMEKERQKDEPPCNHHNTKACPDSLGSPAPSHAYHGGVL

TMEM16A [2] = target: T1, TMEM16A; experiment: Patch clamp, inside-out membrane patches from TMEM16A-expressing FRT cells; format: cell-based
[3] = Shelf stability as solid or DMSO stock; format: physicochemical; conditions: as a solid or in DMSO stock solution
mouse ileum = experiment: Ex vivo intestinal contractility; conditions: added to bath, concentration-dependent

In the case of `Cc1ccccc1NC(=O)c1c(NC(=O)C(F)(F)Br)sc2c1CCCCC2` [Compound 10bm], the “effect on ATP-stimulated cytoplasmic calcium” value (cytoplasmic calcium) is reported as “not altered”, the “ionomycin- and carbachol-activated chloride conductance” value (TMEM16A [1]) is reported as “inhibited” and the “effect on TMEM16A membrane currents” value (TMEM16A [2]; 250 nM by perfusion, inside-out patch, free Ca2+ 305 nM) is reported as “rapid inhibition of membrane currents”. For the same compound, the “recovery of membrane currents after washout” value (TMEM16A [2]; after 250 nM, washout) was “fully recovered following washout”, the long-term shelf stability [3] was over 6 months and the “spontaneous isometric contractions of ileum” value (mouse ileum) was “strongly inhibited”.
